87 compounds from ChEMBL document CHEMBL5604066, “ASAP - DENV-4 NS2B-NS3 protease fluorescence dose response” (2024) can be followed below.

pIC50: −log10 of the molar value. Values joined by “and” are separate entries in the source; they are usually repeats but may differ in a detail not shown here. Identical values can stand only once. Where only a bound is given, the exact number is not on record here.

This assay has as its target T1, NS3 protease (dengue virus type 4, UniProt A0A0K0TQ36).
T1 sequence (A0A0K0TQ36 whole entry): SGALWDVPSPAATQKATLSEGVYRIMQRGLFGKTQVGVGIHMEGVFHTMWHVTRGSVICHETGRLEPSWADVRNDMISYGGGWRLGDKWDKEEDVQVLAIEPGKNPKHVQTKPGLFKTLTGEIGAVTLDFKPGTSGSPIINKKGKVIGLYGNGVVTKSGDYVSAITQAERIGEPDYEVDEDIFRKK
Nature of the assay: Functional biochemical assay to identify treatments for viral infectious disease that targets Dengue virus type 4 NS2B-NS3 protease. Utilizing a direct enzyme activity measurement method, reading the fluorescence intensity is used to characterize the relative potency of inhibitors as IC50. The arrangement: species or system Philippines/H241/1956.
The term pIC50 denotes the negative decadic logarithm of the IC50, by convention in mol/L. Read a low pIC50 as a high IC50. `O=C(Nc1ccc2c(c1)CNC2)c1cc(F)cc2[nH]c(-c3ccc(F)cc3)nc12` gave a negative logarithm of the IC50 (pIC50) of 5.44. In the case of `O=C(Nc1cc(Cl)cc(C(=O)Nc2ccc3c(c2)CCNC3)c1)OCc1ccccc1` it was 4.49. In the case of `CCOCCNC(=O)[C@H](Nc1ccc2c(c1)CNC2)c1cc(Cl)cc2[nH]ncc12` it was under 4.00; in that of `Cc1ccccc1-c1nc2c(C(=O)Nc3ccc4c(c3)CNC4)cc(F)cc2[nH]1`, 5.49; in that of `O=C(Nc1cc(Cl)cc([C@H]2C[C@@H]2c2cccc(C3CCNCC3)c2)c1)OCc1ccccc1`, 5.26. For `NCCc1csc2cc(C(=O)Nc3ccc4c(c3)CNC4)ccc12` the value was under 4.00.

With `C=CC[C@H](Nc1cc(Cl)cc(NC(=O)OCc2ccccc2)c1)c1cccc(-c2nn[nH]n2)c1`, the pIC50 was 5.11. In the case of `O=C(Nc1cc(Cl)cc(C(=O)Nc2cccc([C@H]3C[C@H]3C(=O)O)c2)c1)OCc1ccccc1` it was 4.48; in that of `O=C(Nc1ccc2c(c1)CNC2)c1cc(F)cc2[nH]ncc12`, under 4.00. On to `Cn1cc2cc(Cl)cc(C(=O)Nc3ccc4c(c3)CNC4)c2n1`, for which the pIC50 is under 4.00. `O=C(Nc1cc(Cl)cc(C(=O)Nc2cccc(-n3nn[nH]c3=O)c2)c1)OCc1ccccc1`: the pIC50 was 4.86. In the case of `NCc1cccc(-c2csc3cc(C(=O)Nc4ccc5c(c4)CNC5)ccc23)c1` it was 4.36. Take `Cc1c(C(=O)Nc2cc(CCCN)ccn2)cc(C2CC2)n1C`: the pIC50 was 4.41. For `O=C(Nc1ccc2c(c1)CNC2)c1cc(Cl)cc2nn(-c3ccccc3)nc12` the value was 5.28. For `NCc1ccc(-c2csc3cc(C(=O)Nc4ccc5c(c4)CNC5)ccc23)cc1` the value was 4.27. In the case of `O=C(Nc1cc2c(cc1Br)CNC2)c1cc(F)cc2[nH]ncc12` it was under 4.00; in that of `CNC(=O)[C@H](Nc1cc(Cl)cc(NC(=O)OCc2ccccc2)c1)c1cccc(-c2nn[nH]n2)c1`, 4.21.

As to `O=C1Cc2c(cc(Br)cc2C(=O)Nc2ccc3c(c2)CNC3)N1`, the pIC50 is 4.06. In the case of `O=C(NCC(F)F)[C@H](Nc1ccc2c(c1)CNC2)c1cc(F)cc2[nH]ccc12` it was under 4.00; in that of `Clc1ccc2[nH]cc(Cc3ccc(-c4nn[nH]n4)cc3)c2c1`, 4.00. Compound `N[C@H]1CC[C@H](c2ccc(NC(=O)c3cc(Cl)cc(NC(=O)OCc4ccccc4)c3)cc2)C1` had a pIC50 of 5.12.

With `OCC#C[C@H](Nc1ccc2c(c1)CNC2)c1cc(Cl)cc2[nH]ncc12`, the pIC50 was 4.65.

Regarding `CNC(=O)[C@H](Nc1cc(CN)cc(C(=O)O)c1)c1cc(Cl)cc(C2CC2)c1`, the pIC50 is under 4.00. `N#C[C@H](Nc1cccc(-c2nn[nH]n2)c1)c1cc(Cl)cc(NC(=O)OCc2ccccc2)c1` showed a pIC50 of 4.90.

For `O=C(Nc1ccc2c(c1)CNC2)c1cccc(-c2cnco2)c1`, the pIC50 was 4.63. For `O=C(Nc1cc(Cl)cc([C@H](C#CCO)Nc2cccc(-c3nn[nH]n3)c2)c1)OCc1ccccc1` the value was 4.80. In the case of `O=C(Nc1ccc2c(c1)CNC2)c1cc(F)cc2[nH]c(-c3cccc(F)c3)nc12` it was 5.43. Regarding `O=C(Nc1ccc2c(c1)CNC2)c1cc(F)cc2[nH]c(-c3ccccc3)nc12`, the pIC50 is 5.27. For `C=CC[C@H]1NCc2cc(NC(=O)c3cc(Cl)cc4[nH]ncc34)ccc21` the value was under 4.00. For `c1cc(C2CCN(Cc3c[nH]c4ccccc34)CC2)c2ccncc2c1` the value was under 4.00; for `C=CC[C@H]1NCc2cc(NC(=O)c3cc(F)cc4[nH]ncc34)ccc21`, under 4.00; for `O=C(NCCC1CC1)[C@H](Nc1ccc2c(c1)CNC2)c1cc(Cl)cc(C2CC2)c1`, under 4.00. In the case of `Cc1cccc(-c2nc3c(C(=O)Nc4ccc5c(c4)CNC5)cc(Cl)cc3[nH]2)c1O` it was 5.45. `O=C(Nc1ccc2c(c1)CNC2)c1cccc2[nH]c(C(F)(F)F)cc12` showed a pIC50 of under 4.00. In the case of `N#C[C@H](Nc1ccc2c(c1)CNC2)c1cc(Cl)cc(C2CC2)c1` it was under 4.00.

As for `COc1cc(-c2cc(NC(=O)c3cc(F)cc4[nH]ncc34)cc3c2CNC3)ccn1`, the pIC50 was 4.37. Consider `O=C(Nc1ccc2c(c1)CNC2)c1cc(Cl)cc2c1CCC2`, for which the pIC50 was under 4.00. In the case of `O=C(Nc1ccc2c(c1)CNC2)c1cc(F)c2[nH]ccc2c1`, the pIC50 was under 4.00. For `Clc1cc(CNc2ccc3c(c2)CNC3)c2cn[nH]c2c1` the value was 4.41. As for `N=C(N)NCCC[C@H](NC(=O)c1nccs1)C(=O)N[C@@H](CCCCN)C(=O)N[C@@H](C(N)=O)c1ccc(OCc2ccc(C(F)(F)F)cc2)cc1`, the pIC50 is 5.59 and 5.76 and 5.57 and 5.83 and 5.94 and 5.73 and 5.98.

Compound `O=C(Nc1cc2c(c(C3=CCOCC3)c1)CNC2)c1cc(F)cc2[nH]ncc12` had a pIC50 of 4.52. `O=C1Cc2c(cc(F)cc2C(=O)Nc2ccc3c(c2)CNC3)N1` had a pIC50 of 4.27. For `O=C(Nc1cc(Cl)cc(-c2ccc3[nH]c(C(=O)O)cc3c2)c1)OCc1ccccc1` the value was 5.16; for `Cn1c(=O)[nH]c2c(C(=O)Nc3ccc4c(c3)CNC4)cc(Br)cc21`, under 4.00. In the case of `COCCNC(=O)[C@H](Nc1ccc2c(c1)CNC2)c1cc(Cl)cc(C2CC2)c1` it was under 4.00. In turn, `NCc1cccc([C@H]2C[C@@H]2c2cc(Cl)cc(NC(=O)OCc3ccccc3)c2)c1` showed a pIC50 of 5.10. For `O=C(Nc1ccc2c(c1)CNCC2)c1cc(Cl)cc2[nH]ncc12` the value was under 4.00.

In the case of `NCCc1csc2cc(C(=O)Nc3cc([C@H]4CCOC4)ccn3)ccc12`, the pIC50 was under 4.00. In the case of `O=C(Nc1ccc2c(c1)CNC2)c1ccc2c(C3=CCNCC3)csc2c1` it was 4.15; in that of `CC(C)NC(=O)[C@H](Nc1ccc2c(c1)CNC2)c1cc(Cl)cc2[nH]ncc12`, 4.30. In the case of `O=C(Nc1ccc2c(c1)CNC2)c1cc(F)cc2[nH]c(-c3ccccc3F)nc12`, the pIC50 is 5.28. In the case of `Clc1cc([C@@H]2C[C@H]2c2cccc(C3CCNCC3)c2)c2cn[nH]c2c1` it was 5.23; in that of `Cc1c(C(=O)Nc2cc([C@H]3CCOC3)ccn2)cc(C2CC2)n1C`, under 4.00. On to `CC(C)c1cc(Br)cc(C(=O)Nc2ccc3c(c2)CNC3)c1`, for which the pIC50 is under 4.00.

`Cc1ccc(NC(=O)c2cc(Cl)cc(NC(=O)OCc3ccccc3)c2)cc1CN`: the pIC50 was 4.15. For `O=C(Nc1ccc2c(c1)CNC2)c1cc(Cl)cc2[nH]ncc12` the value was under 4.00. For `CN1Cc2ccc(NC(=O)c3cc(Cl)cc4[nH]ncc34)cc2C1` the value was under 4.00. In the case of `Cc1c(C(=O)Nc2cc(-c3cccnc3)ccn2)cc(C2CC2)n1C` it was 5.17. For `COc1cccc(-c2nc3c(C(=O)Nc4ccc5c(c4)CNC5)cc(F)cc3[nH]2)c1`, the pIC50 is 5.27. In the case of `CC(C)(C)c1cc(Br)cc(C(=O)Nc2ccc3c(c2)CNC3)c1` it was under 4.00; in that of `CC(C)(c1nc2c(C(=O)Nc3ccc4c(c3)CNC4)cc(F)cc2[nH]1)S(C)(=O)=O`, 4.74; in that of `O=C(Nc1cc2c(c(C3=CCS(=O)(=O)CC3)c1)CNC2)c1cc(F)cc2[nH]ncc12`, 4.30. As for `CNC(=O)[C@H](Nc1cc(CN)cc(-c2nn[nH]n2)c1)c1cc(Cl)cc(C2CC2)c1`, the pIC50 was under 4.00. Compound `O=C(Nc1cc(Cl)cc([C@H]2CN(Cc3ccccc3)C[C@@H]2c2cccc(-c3nn[nH]n3)c2)c1)OCc1ccccc1` gave a pIC50 of 5.17. For `CNC(=O)[C@H](Nc1cccc(CN)c1)c1cc(Cl)cc(NC(=O)OCc2ccccc2)c1` the value was under 4.00; for `CC(C)CNC(=O)c1cc(Cl)ccc1NS(=O)(=O)c1ccc(Oc2ccccc2Cl)cc1`, 4.82. In turn, `NCc1cccc(NC(=O)c2cc(Cl)cc(NC(=O)OCc3ccccc3)c2)c1` gave a pIC50 of 4.46. In the case of `O=C(NC1CCOCC1)[C@H](Nc1ccc2c(c1)CNC2)c1cc(Cl)cc(C2CC2)c1` it was under 4.00; in that of `CCc1cc(C(=O)Nc2cccc(-n3nn[nH]c3=O)c2)sc1-c1ccc(Cl)cc1`, 4.88; in that of `N=C(N)NCCC[C@H](NC(=O)[C@H](Cc1ccc(CN)cc1)NC(=O)c1ccccc1)B(O)O`, 6.10 and 6.30. For `N#C[C@H](Nc1ccc2c(c1)CNC2)c1cc(Cl)cc2[nH]ncc12` the value was under 4.00; for `NCc1ccc([C@H]2C[C@@H]2c2cc(Cl)cc(NC(=O)OCc3ccccc3)c2)cc1`, 5.16; for `O=C(Nc1ccc2c(c1)CNC2)c1cccc2[nH]c(=O)[nH]c12`, 4.13. Take `C=CC[C@H]1NCc2cc(N[C@H](C(=O)NC(C)C)c3cc(Cl)cc4[nH]ncc34)ccc21`: the pIC50 is under 4.00. In the case of `N#Cc1cc2c(cc1NC(=O)c1cc(F)cc3[nH]ncc13)CNC2` it was 4.43.

`O=C(Nc1ccc2c(c1)CNC2)c1cc(Br)cc2[nH]c(-c3ccccc3)nc12` gave a pIC50 of 5.53. For `CC(C)c1nnc(-c2nc3c(C(=O)Nc4ccc5c(c4)CNC5)cc(F)cc3[nH]2)s1` the value was 5.01. For `O=C(Nc1ccc2c(c1)CNC2)c1cccc2c(C3CNC3)n[nH]c12` the value was 4.49. For `O=C(Nc1ccc2c(c1)CNC2)c1cc(F)cc2c1CCC2` the value was under 4.00.

Turning to `NCc1csc2cc(C(=O)Nc3ccc4c(c3)CNC4)ccc12`, the pIC50 was 4.93. In the case of `O=C(Nc1ccc2c(c1)CNC2)c1cccc2nc(O)ccc12` it was under 4.00.

`Cc1cccc(-c2nc3c(C(=O)Nc4ccc5c(c4)CNC5)cc(F)cc3[nH]2)c1` showed a pIC50 of 5.23. In the case of `O=C(Nc1ccc2c(c1)CNC2)c1cccc2cn[nH]c12` it was 4.35. For the compound `N#Cc1cccc(-c2nc3c(C(=O)Nc4ccc5c(c4)CNC5)cc(F)cc3[nH]2)c1`, the pIC50 was 5.54. In turn, `O=C(Nc1cc(Cl)cc(C(=O)Nc2ccc3c(c2)CNC3)c1)OCc1ccccc1` showed a pIC50 of 4.04. For `O=C(Nc1ccc2c(c1)CNC2)c1cc(Cl)cc2cc[nH]c12` the value was under 4.00; for `O=C(Nc1ccc2c(c1)CNC2)c1cc(Cl)cc2ccncc12`, under 4.00.
